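These data come from cells grown in 96-well plates and exposed to compound for 48 hours at five concentrations. Abbreviation: GI50, concentration required for 50% inhibition of growth. TGI marks complete inhibition of growth.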
What was measured:
Assay in all cases: NCI tumour cell line growth inhibition, 48 h
786-0 renal = tested on: 786-0 renal
A549 NSCLC = tested on: A549 NSCLC
ACHN renal = tested on: ACHN renal
BT-549 breast = tested on: BT-549 breast
CCRF-CEM leukemia = tested on: CCRF-CEM leukemia
COLO 205 colon = tested on: COLO 205 colon
DU-145 prostate = tested on: DU-145 prostate
HCC-2998 colon = tested on: HCC-2998 colon
HCT-116 colon = tested on: HCT-116 colon
HL-60(TB) leukemia = tested on: HL-60(TB) leukemia
HOP-62 NSCLC = tested on: HOP-62 NSCLC
HOP-92 NSCLC = tested on: HOP-92 NSCLC
HS 578T breast = tested on: HS 578T breast
HT29 colon = tested on: HT29 colon
IGROV1 ovarian = tested on: IGROV1 ovarian
K-562 leukemia = tested on: K-562 leukemia
LOX IMVI melanoma = tested on: LOX IMVI melanoma
M14 melanoma = tested on: M14 melanoma
MALME-3M melanoma = tested on: MALME-3M melanoma
MDA-MB-231 breast = tested on: MDA-MB-231 breast
MDA-MB-435 = tested on: MDA-MB-435
MOLT-4 leukemia = tested on: MOLT-4 leukemia
NCI-H226 lung = tested on: NCI-H226 lung
NCI-H23 lung = tested on: NCI-H23 lung
NCI/ADR-RES ovarian = tested on: NCI/ADR-RES ovarian
OVCAR-3 ovarian = tested on: OVCAR-3 ovarian
OVCAR-4 ovarian = tested on: OVCAR-4 ovarian
OVCAR-5 ovarian = tested on: OVCAR-5 ovarian
OVCAR-8 ovarian = tested on: OVCAR-8 ovarian
RXF 393 renal = tested on: RXF 393 renal
SF-268 CNS = tested on: SF-268 CNS
SF-295 CNS = tested on: SF-295 CNS
SF-539 CNS = tested on: SF-539 CNS
SK-MEL-2 melanoma = tested on: SK-MEL-2 melanoma
SK-MEL-28 melanoma = tested on: SK-MEL-28 melanoma
SK-MEL-5 melanoma = tested on: SK-MEL-5 melanoma
SK-OV-3 ovarian = tested on: SK-OV-3 ovarian
SN12C renal = tested on: SN12C renal
SNB-19 CNS = tested on: SNB-19 CNS
SNB-75 CNS = tested on: SNB-75 CNS
SR leukemia = tested on: SR leukemia
SW-620 colon = tested on: SW-620 colon
TK-10 renal = tested on: TK-10 renal
U251 CNS = tested on: U251 CNS
UACC-257 melanoma = tested on: UACC-257 melanoma
UACC-62 melanoma = tested on: UACC-62 melanoma

O=C(Nc1ccc(OCc2nnc(-c3ccc(Cl)cc3)o2)c(F)c1)c1ccc(Cl)c(C(F)(F)F)c1
GI50 (786-0 renal): > 50 µM | TGI (786-0 renal): > 50 µM | GI50 (A549 NSCLC): > 50 µM | TGI (A549 NSCLC): > 50 µM | GI50 (ACHN renal): > 50 µM | TGI (ACHN renal): > 50 µM | GI50 (BT-549 breast): > 50 µM | TGI (BT-549 breast): > 50 µM | GI50 (CCRF-CEM leukemia): > 50 µM | TGI (CCRF-CEM leukemia): > 50 µM | GI50 (COLO 205 colon): > 50 µM | TGI (COLO 205 colon): > 50 µM | GI50 (DU-145 prostate): > 50 µM | TGI (DU-145 prostate): > 50 µM | GI50 (HCC-2998 colon): > 50 µM | TGI (HCC-2998 colon): > 50 µM | GI50 (HCT-116 colon): > 50 µM | TGI (HCT-116 colon): > 50 µM | GI50 (HL-60(TB) leukemia): > 50 µM | TGI (HL-60(TB) leukemia): > 50 µM | GI50 (HOP-62 NSCLC): > 50 µM | TGI (HOP-62 NSCLC): > 50 µM | GI50 (HOP-92 NSCLC): > 50 µM | TGI (HOP-92 NSCLC): > 50 µM | GI50 (HS 578T breast): > 50 µM | TGI (HS 578T breast): > 50 µM | GI50 (HT29 colon): > 50 µM | TGI (HT29 colon): > 50 µM | GI50 (IGROV1 ovarian): > 50 µM | TGI (IGROV1 ovarian): > 50 µM | GI50 (K-562 leukemia): > 50 µM | TGI (K-562 leukemia): > 50 µM | GI50 (LOX IMVI melanoma): > 50 µM | TGI (LOX IMVI melanoma): > 50 µM | GI50 (M14 melanoma): > 50 µM | TGI (M14 melanoma): > 50 µM | GI50 (MALME-3M melanoma): > 50 µM | TGI (MALME-3M melanoma): > 50 µM | GI50 (MDA-MB-231 breast): > 50 µM | TGI (MDA-MB-231 breast): > 50 µM | GI50 (MDA-MB-435): > 50 µM | TGI (MDA-MB-435): > 50 µM | GI50 (MOLT-4 leukemia): > 50 µM | TGI (MOLT-4 leukemia): > 50 µM | GI50 (NCI-H226 lung): > 50 µM | TGI (NCI-H226 lung): > 50 µM | GI50 (NCI-H23 lung): > 50 µM | TGI (NCI-H23 lung): > 50 µM | GI50 (NCI/ADR-RES ovarian): > 50 µM | TGI (NCI/ADR-RES ovarian): > 50 µM | GI50 (OVCAR-3 ovarian): > 50 µM | TGI (OVCAR-3 ovarian): > 50 µM | GI50 (OVCAR-4 ovarian): > 50 µM | TGI (OVCAR-4 ovarian): > 50 µM | GI50 (OVCAR-5 ovarian): > 50 µM | TGI (OVCAR-5 ovarian): > 50 µM | GI50 (OVCAR-8 ovarian): > 50 µM | TGI (OVCAR-8 ovarian): > 50 µM | GI50 (RXF 393 renal): > 50 µM | TGI (RXF 393 renal): > 50 µM | GI50 (SF-268 CNS): > 50 µM | TGI (SF-268 CNS): > 50 µM | GI50 (SF-295 CNS): > 50 µM | TGI (SF-295 CNS): > 50 µM | GI50 (SF-539 CNS): > 50 µM | TGI (SF-539 CNS): > 50 µM | GI50 (SK-MEL-2 melanoma): > 50 µM | TGI (SK-MEL-2 melanoma): > 50 µM | GI50 (SK-MEL-28 melanoma): > 50 µM | TGI (SK-MEL-28 melanoma): > 50 µM | GI50 (SK-MEL-5 melanoma): > 50 µM | TGI (SK-MEL-5 melanoma): > 50 µM | GI50 (SK-OV-3 ovarian): > 50 µM | TGI (SK-OV-3 ovarian): > 50 µM | GI50 (SN12C renal): > 50 µM | TGI (SN12C renal): > 50 µM | GI50 (SNB-19 CNS): > 50 µM | TGI (SNB-19 CNS): > 50 µM | GI50 (SNB-75 CNS): > 50 µM | TGI (SNB-75 CNS): > 50 µM | GI50 (SR leukemia): > 50 µM | TGI (SR leukemia): > 50 µM | GI50 (SW-620 colon): > 50 µM | TGI (SW-620 colon): > 50 µM | GI50 (TK-10 renal): > 50 µM | TGI (TK-10 renal): > 50 µM | GI50 (U251 CNS): > 50 µM | TGI (U251 CNS): > 50 µM | GI50 (UACC-257 melanoma): > 50 µM | TGI (UACC-257 melanoma): > 50 µM | GI50 (UACC-62 melanoma): > 50 µM | TGI (UACC-62 melanoma): > 50 µM

From PubChem BioAssay (NCI)
